Test results published in PubChem BioAssay AID248 (DTP/NCI, 2004).
“And” between values parts separate entries of the source, which are not always exact repeats. Equal values may be shown once. Inconclusive results and toxic doses are left out. Rule as the data show it: active = T/C of 150% or more; inactive = T/C below 125%.

Tested on: L1210 leukemia ip in BDF1 mice, survival T/C
Assay: NCI In Vivo Anticancer Drug Screen. Data for tumor model L1210 Leukemia (intraperitoneal) in B6D2F1 (BDF1) mice
Conditions: higher = longer survival
Outline: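 In this screen, tumor-bearing mice given compound are compared to those given vehicle, and their survival values are reported as a treated-to-control quotient.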

[1] = endpoint: mean survival time, dose: 25.0 mg/kg/injection, schedule: Q01DX009 (ip), vehicle: saline with Tween-80
[2] = endpoint: mean survival time, dose: 50.0 mg/kg/injection, schedule: Q01DX009 (ip), vehicle: saline with Tween-80
[3] = endpoint: mean survival time, dose: 100.0 mg/kg/injection, schedule: Q04DX003 (ip), vehicle: Klucel (hydroxypropylcellulose) (HPC)
[4] = endpoint: mean survival time, dose: 100.0 mg/kg/injection, schedule: Q01DX001 (ip), vehicle: saline
[5] = endpoint: mean survival time, dose: 200.0 mg/kg/injection, schedule: Q01DX001 (ip), vehicle: saline
[6] = endpoint: mean survival time, dose: 400.0 mg/kg/injection, schedule: Q01DX001 (ip), vehicle: saline
[7] = endpoint: mean survival time, dose: 100.0 mg/kg/injection, schedule: Q04DX003 (ip), vehicle: saline
[8] = endpoint: mean survival time, dose: 200.0 mg/kg/injection, schedule: Q04DX003 (ip), vehicle: saline
[9] = endpoint: mean survival time, dose: 400.0 mg/kg/injection, schedule: Q04DX003 (ip), vehicle: saline
[10] = endpoint: mean survival time, dose: 100.0 mg/kg/injection, schedule: Q01DX009 (ip), vehicle: saline
[11] = endpoint: mean survival time, dose: 200.0 mg/kg/injection, schedule: Q01DX009 (ip), vehicle: saline
[12] = endpoint: mean survival time, dose: 400.0 mg/kg/injection, schedule: Q01DX009 (ip), vehicle: saline
[13] = endpoint: mean survival time, dose: 50.0 mg/kg/injection, schedule: Q01DX001 (ip), vehicle: saline
[14] = endpoint: mean survival time, dose: 200.0 mg/kg/injection, schedule: Q04DX003 (ip), vehicle: Klucel (hydroxypropylcellulose) (HPC)
[15] = endpoint: mean survival time, dose: 400.0 mg/kg/injection, schedule: Q01DX009 (ip), vehicle: Klucel (hydroxypropylcellulose) (HPC)
[16] = endpoint: mean survival time, dose: 100.0 mg/kg/injection, schedule: Q01DX009 (ip), vehicle: Klucel (hydroxypropylcellulose) (HPC)
[17] = endpoint: mean survival time, dose: 200.0 mg/kg/injection, schedule: Q01DX009 (ip), vehicle: Klucel (hydroxypropylcellulose) (HPC)
[18] = endpoint: mean survival time, dose: 400.0 mg/kg/injection, schedule: Q04DX003 (ip), vehicle: Klucel (hydroxypropylcellulose) (HPC)
[19] = endpoint: mean survival time, dose: 100.0 mg/kg/injection, schedule: Q01DX009 (ip), vehicle: saline with Tween-80

Measured: T/C

Cc1cc(C)c(N)c(Br)c1
inactive: [1] 88 % of control | endpoint: mean survival time, dose: 25.0 mg/kg/injection, schedule: Q04DX003 (ip), vehicle: Klucel (hydroxypropylcellulose) (HPC) 95 % of control | [2] 87 % of control | endpoint: mean survival time, dose: 50.0 mg/kg/injection, schedule: Q04DX003 (ip), vehicle: Klucel (hydroxypropylcellulose) (HPC) 97 % of control | endpoint: mean survival time, dose: 100.0 mg/kg/injection, schedule: Q01DX001 (ip), vehicle: Klucel (hydroxypropylcellulose) (HPC) 95 % of control | [3] 93 % of control and 90 % of control | endpoint: mean survival time, dose: 100.0 mg/kg/injection, schedule: Q04DX003 (ip), vehicle: saline with Tween-80 91 % of control | endpoint: mean survival time, dose: 200.0 mg/kg/injection, schedule: Q01DX001 (ip), vehicle: Klucel (hydroxypropylcellulose) (HPC) 97 % of control

CN(C)c1ccc(C=Nc2cc(Cl)ccc2O)cc1
inactive: [4] 107 % of control | [5] 100 % of control | [6] 100 % of control

COC(=O)/C=C/C=C/c1ccc(Br)cc1
inactive: [7] 91 % of control | [8] 92 % of control | [9] 92 % of control

COC(=O)c1cc2c(cc1O)CCCC2
inactive: endpoint: mean survival time, dose: 50.0 mg/kg/injection, schedule: Q01DX001 (ip), vehicle: carboxymethylcellulose (CMC) 107 % of control | endpoint: mean survival time, dose: 100.0 mg/kg/injection, schedule: Q01DX001 (ip), vehicle: carboxymethylcellulose (CMC) 113 % of control | endpoint: mean survival time, dose: 200.0 mg/kg/injection, schedule: Q01DX001 (ip), vehicle: carboxymethylcellulose (CMC) 107 % of control | endpoint: mean survival time, dose: 400.0 mg/kg/injection, schedule: Q01DX001 (ip), vehicle: carboxymethylcellulose (CMC) 107 % of control

CCC(=O)c1cc(OC)cc(OC)c1
inactive: [10] 105 % of control | [11] 105 % of control | [12] 112 % of control

CCOc1c(CNC(=O)CCl)cc(N)cc1CNC(=O)CCl
inactive: [13] 106 % of control | [4] 111 % of control

O=C(COc1cccc(Cl)c1)Nc1cccnc1
inactive: endpoint: mean survival time, dose: 12.0 mg/kg/injection, schedule: Q01DX009 (ip), vehicle: Klucel (hydroxypropylcellulose) (HPC) 89 % of control | endpoint: mean survival time, dose: 25.0 mg/kg/injection, schedule: Q01DX009 (ip), vehicle: Klucel (hydroxypropylcellulose) (HPC) 98 % of control | endpoint: mean survival time, dose: 50.0 mg/kg/injection, schedule: Q01DX009 (ip), vehicle: Klucel (hydroxypropylcellulose) (HPC) 92 % of control | [3] 93 % of control | [14] 103 % of control | [15] 87 % of control

NC(N)=N/N=C(/c1ccccc1)c1ccc2ccccc2c1
inactive: endpoint: mean survival time, dose: 60.0 mg/kg/injection, schedule: Q01DX Z (oral), vehicle: methylcellulose (MC) 95 % of control | endpoint: mean survival time, dose: 120.0 mg/kg/injection, schedule: Q01DX Z (oral), vehicle: methylcellulose (MC) 108 % of control | endpoint: mean survival time, dose: 240.0 mg/kg/injection, schedule: Q01DX Z (oral), vehicle: methylcellulose (MC) 111 % of control | endpoint: mean survival time, dose: 480.0 mg/kg/injection, schedule: Q01DX Z (oral), vehicle: methylcellulose (MC) 101 % of control | endpoint: mean survival time, dose: 720.0 mg/kg/injection, schedule: Q01DX Z (oral), vehicle: methylcellulose (MC) 98 % of control | endpoint: mean survival time, dose: 840.0 mg/kg/injection, schedule: Q01DX Z (oral), vehicle: methylcellulose (MC) 112 % of control

O=C(O)c1cc(I)cc(Br)c1I
inactive: endpoint: mean survival time, dose: 100.0 mg/kg/injection, schedule: Q04DX002 (ip), vehicle: Klucel (hydroxypropylcellulose) (HPC) 102 % of control | endpoint: mean survival time, dose: 200.0 mg/kg/injection, schedule: Q04DX002 (ip), vehicle: Klucel (hydroxypropylcellulose) (HPC) 110 % of control | endpoint: mean survival time, dose: 400.0 mg/kg/injection, schedule: Q04DX002 (ip), vehicle: Klucel (hydroxypropylcellulose) (HPC) 105 % of control

Cc1ccc(C(C)C)c(Oc2cc(C)ccc2C(C)C)c1
inactive: [16] 98 % of control | [3] 97 % of control | [17] 102 % of control | [14] 93 % of control | [15] 108 % of control | [18] 93 % of control

COc1cc(N)ccc1NC(=O)c1ccccc1
inactive: endpoint: mean survival time, dose: 12.5 mg/kg/injection, schedule: Q01DX001 (ip), vehicle: carboxymethylcellulose (CMC) 117 % of control | endpoint: mean survival time, dose: 25.0 mg/kg/injection, schedule: Q01DX001 (ip), vehicle: carboxymethylcellulose (CMC) 106 % of control

CC(C)CC1NC(=O)C(Cc2ccc(OCc3ccccc3)cc2)NC1=O (configuration not stated)
inactive: [19] 102 % of control | [7] 104 % of control | endpoint: mean survival time, dose: 200.0 mg/kg/injection, schedule: Q01DX009 (ip), vehicle: saline with Tween-80 96 % of control | [8] 88 % of control | endpoint: mean survival time, dose: 400.0 mg/kg/injection, schedule: Q01DX009 (ip), vehicle: saline with Tween-80 100 % of control | [9] 94 % of control

O=C1CCC2C1CC1CC3C(=O)CCC3C12 (configuration not stated)
inactive: endpoint: mean survival time, dose: 50.0 mg/kg/injection, schedule: Q04DX002 (ip), vehicle: saline with Tween-80 113 % of control | endpoint: mean survival time, dose: 100.0 mg/kg/injection, schedule: Q04DX002 (ip), vehicle: saline with Tween-80 98 % of control

CCOC(=O)C(CC)(CCC(C)C)C(=O)OCC
inactive: [1] 97 % of control | [2] 92 % of control | [19] 95 % of control | [7] 95 % of control | [8] 95 % of control | [9] 95 % of control

Cc1ccccc1S(=O)(=O)CC(Cl)c1ccccc1 (configuration not stated)
inactive: [4] 102 % of control | [10] 93 % of control | [5] 102 % of control | [11] 91 % of control | [6] 107 % of control | [12] 91 % of control

Cc1cc(N(CCCl)CCCl)ccc1N=Nc1ccccc1
inactive: endpoint: median survival time, dose: 100.0 mg/kg/injection, schedule: Q01DX009 (ip), vehicle: Klucel (hydroxypropylcellulose) (HPC) 98 % of control | endpoint: median survival time, dose: 200.0 mg/kg/injection, schedule: Q01DX009 (ip), vehicle: Klucel (hydroxypropylcellulose) (HPC) 97 % of control | endpoint: median survival time, dose: 400.0 mg/kg/injection, schedule: Q01DX009 (ip), vehicle: Klucel (hydroxypropylcellulose) (HPC) 93 % of control

CCCCCCCCOc1ccc(C(=O)c2ccccc2)c(O)c1
inactive: [16] 100 % of control | [3] 94 % of control | [17] 101 % of control | [14] 96 % of control | [15] 94 % of control | [18] 94 % of control

COc1ccc(CN2CCCN(Cc3ccc(OC)cc3OC)C2c2cc(Br)ccc2O)c(OC)c1
inactive: [13] 97 % of control | [4] 90 % of control | [5] 92 % of control | [6] 92 % of control

ClC(c1ccccc1)(c1ccccc1)c1ccccc1
inactive: endpoint: mean survival time, dose: 50.0 mg/kg/injection, schedule: Q01DX001 (ip), vehicle: other 96 % of control | endpoint: mean survival time, dose: 100.0 mg/kg/injection, schedule: Q01DX001 (ip), vehicle: other 102 % of control | [10] 87 % of control | [7] 90 % of control | endpoint: mean survival time, dose: 200.0 mg/kg/injection, schedule: Q01DX001 (ip), vehicle: other 106 % of control | [11] 94 % of control | [8] 93 % of control | endpoint: mean survival time, dose: 400.0 mg/kg/injection, schedule: Q01DX001 (ip), vehicle: other 100 % of control | [12] 90 % of control | [9] 88 % of control

CCN(CC)CC(O)Cn1cnc2cncnc21 (configuration not stated)
inactive: endpoint: mean survival time, dose: 25.0 mg/kg/injection, schedule: Q04DX003 (ip), vehicle: saline 98 % of control | endpoint: mean survival time, dose: 50.0 mg/kg/injection, schedule: Q04DX003 (ip), vehicle: saline 107 % of control | [7] 98 % of control
